Source: patent publication US6518480B1 (priority 1996, dated 2003)

What was measured:
[1] = molecular target: OR1 (Homo sapiens, UniProt P41145, G198V/DELINS201-226[…], form not given); experiment: Signaling (activation of G protein-mediated signals, adenylyl cyclase inhibition) by OR1; format: cell-based
[2] = test system: OR1; experiment: as above; format: cell-based, human; details: relative to signal detected with wild-type KOR
[3] = test system: OR1; format: binding, human
[4] = test system: OR2; format: binding, human
[5] = molecular target: T1, Wild-type KOR (Homo sapiens, UniProt P41145); experiment: Signaling (activation of G protein-mediated signals, adenylyl cyclase inhibition) by wild-type KOR; format: cell-based
T1 construct: expressed in transfected cells; host or cells: COS-7 and CHO-KI (for OR1 and OR2)
T1 sequence (P41145 whole entry): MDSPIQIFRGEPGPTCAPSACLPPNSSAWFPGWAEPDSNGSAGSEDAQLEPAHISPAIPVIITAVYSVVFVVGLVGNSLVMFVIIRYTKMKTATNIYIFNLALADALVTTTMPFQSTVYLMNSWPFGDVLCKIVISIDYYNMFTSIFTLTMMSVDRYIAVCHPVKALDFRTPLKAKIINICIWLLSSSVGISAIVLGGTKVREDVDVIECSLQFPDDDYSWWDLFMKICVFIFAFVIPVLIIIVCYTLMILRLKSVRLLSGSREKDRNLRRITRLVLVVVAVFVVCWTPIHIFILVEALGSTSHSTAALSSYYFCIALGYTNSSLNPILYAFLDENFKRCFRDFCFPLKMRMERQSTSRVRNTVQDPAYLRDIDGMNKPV

[6] = molecular target: T1, Wild-type KOR; experiment: biochemical; format: binding
[7] = molecular target: OR2 (Homo sapiens, UniProt P41145, G198V/DELINS201-226[…]/E297Q, form not given); format: cell-based; details: read-out: EC50, signaling by OR2; signaling by OR2
Sequence of OR2 (Homo sapiens, UniProt P41145, G198V/DELINS201-226[…]/E297Q, form not given) (P41145 with tags, fused parts or gaps DELINS198-226[withheld]/E297Q, form open): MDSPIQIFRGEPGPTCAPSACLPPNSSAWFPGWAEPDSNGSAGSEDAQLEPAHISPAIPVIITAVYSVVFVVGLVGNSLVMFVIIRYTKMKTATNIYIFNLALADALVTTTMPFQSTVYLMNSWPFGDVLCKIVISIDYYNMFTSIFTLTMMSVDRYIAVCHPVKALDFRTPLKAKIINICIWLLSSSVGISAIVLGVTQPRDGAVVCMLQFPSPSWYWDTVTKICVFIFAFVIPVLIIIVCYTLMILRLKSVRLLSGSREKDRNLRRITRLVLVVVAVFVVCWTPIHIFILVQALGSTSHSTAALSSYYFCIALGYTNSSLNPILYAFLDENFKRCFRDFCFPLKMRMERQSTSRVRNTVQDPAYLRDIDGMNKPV

[8] = test system: OR2; format: cell-based, human
[9] = relative to signal detected with wild-type KOR

Sequence of OR1 (Homo sapiens, UniProt P41145, G198V/DELINS201-226[…], form not given) (P41145 with tags, fused parts or gaps DELINS198-226[withheld], form open): as the sequence (P41145 with tags, fused parts or gaps DELINS198-226[withheld]/E297Q, form open) above, with Q294E counted along it

How did the “Inhibition of adenylyl cyclase by OR1 in response to ligand” value ([1]; dynorphin only at high concentrations) turn out when `CCC12CCN(CC3(O)CC3)C(Cc3ccc(O)cc31)C2(C)C` (stereo not drawn) [Bremazocine, bremazocine] was run?
Its value is “inhibits adenylyl cyclase”.

And the EC50 ([1]; read-out: EC50, signaling by OR1, signaling by OR1)?
Its EC50 is 68 pM.

What about the “Fold decrease in signaling, OR1” value [2] of the same molecule?
Its value is 1 fold.

And the “Change in binding affinity of OR1 relative to native human KOR” value [3]?
Its value is “no significant change”.

What about the “Fold decrease in binding, OR1” value [3] of the same molecule?
The value was 1.7 fold.

And the “Change in binding affinity of OR2 relative to native human KOR” value [4]?
The value was “no change”.

What about the “Fold decrease in binding, OR2” value [4] of the same molecule?
The value was 1.2 fold.

What about the EC50 [5] of the same molecule?
Its EC50 is 67 pM.

And the “Fold decrease in signaling, Wild-type KOR” value [5, 9]?
Its value is 1 fold.

What about the “Fold decrease in binding, Wild-type KOR” value [6] of the same molecule?
The value was 1 fold.

What about the Ki [6] of the same molecule?
The Ki was 38 pM.

And the EC50 [7]?
Its EC50 is 340 pM.

And the “Fold decrease in signaling, OR2” value [8, 9]?
The value was 5.17 fold.

And the “Biochemical Signal, decrease (summary), OR2” value ([8]; summary table, ↓ = decrease versus wild-type KOR)?
Its value is “↓5x”.

What about the “Amount of ligand required to activate the biochemical signal at OR2 compared to wild-type KOR” value ([8]; times more ligand than for wild type KOR) of the same molecule?
The value was “about 5 times”.
